Counter-ions that a name gives are not always drawn.
Assays:
Test in all cases: Tumor cell viability assay, Trypan blue exclusion
Format in all cases: cell-based
Settings in all cases: cell viability after 96 hours
[1] = test system: breast adenocarcinoma cell line BT-20
Procedure: (§1) BT-20 is an estrogen-unresponsive cell line. NIH/3T3 and HFL are normal murine and human fibroblasts, respectively. BT-20, DLD-1 and H157 were grown in Dulbecco's modified Eagle's medium (DMEM) containing 10% fetal bovine serum supplemented with penicillin and streptomycin. DU145 was cultured in RPMI with 10% fetal bovine serum containing penicillin and streptomycin. NIH3T3 and HFL cells were grown in DMEM containing 10% calf serum supplemented with penicillin and streptomycin. Cells were plated at density levels of 1.0×10^5 cells per well in six-well plates. Cell cultures were maintained at 37° C. in a humidified atmosphere of 5% CO2. Cells were treated with compounds of the invention at various concentrations. Cell viability was determined after 96 hours by the Trypan blue exclusion method. […] The number of viable cells remaining after 96 hours of treatment was determined using hemacytometer following trypan blue staining. The number of viable cells has been plotted as the percent of Vehicle treated (control) cells.

[2] = test system: non-small cell lung carcinoma cell line H157
Procedure: as §1

[3] = test system: prostate carcinoma cell line DU-145
Procedure: as §1

[4] = test system: colorectal carcinoma cell line DLD-1
Procedure: as §1

Measured: IC50

CNc1cc(CS(=O)(=O)/C=C/c2c(OC)cc(OC)cc2OC)ccc1OC [Example 17, (E)-2,4,6-Trimethoxystyryl-3-(N-methylamino)-4-methoxybenzyl-sulfone]
< 10 µM: all assays above

COc1cc(OC)c(/C=C/S(=O)(=O)Cc2ccc(OC)c(NC(C)=O)c2)c(OC)c1 [Example 18, (E)-2,4,6-Trimethoxystyryl-3-(acetamido)-4-methoxybenzyl-sulfone]
< 10 µM: all assays above

COc1cc(OC)c(/C=C/S(=O)(=O)Cc2ccc(OC)c(NS(=O)(=O)c3ccc([N+](=O)[O-])cc3[N+](=O)[O-])c2)c(OC)c1 [Example 19, (E)-2,4,6-Trimethoxystyryl-3-(2,4-dinitrobenzenesulfamyl)-4-methoxybenzylsulfone]
< 10 µM: all assays above

COc1cc(OC)c(/C=C/S(=O)(=O)Cc2ccc(OC)c(NS(=O)(=O)c3ccc(N)cc3N)c2)c(OC)c1 [Example 20, (E)-2,4,6-Trimethoxystyryl-3-(2,4-diaminobenzenesulfamyl)-4-methoxybenzylsulfone]
< 10 µM: all assays above

COc1cc(OC)c(/C=C/S(=O)(=O)Cc2ccc(OC)c(NC(=O)CN(C)C)c2)c(OC)c1 [Example 21, (E)-2,4,6-trimethoxystyryl-3-(dimethylaminoacetamido)-4-methoxybenzylsulfone]
< 10 µM: all assays above

COc1cc(OC)c(/C=C/S(=O)(=O)Cc2ccc(OC)c(NC(C)C(=O)O)c2)c(OC)c1 (stereo not drawn) [Example 22, (E)-2,4,6-trimethoxystyryl-3-[(1-carboxyethyl)amino]-4-methoxybenzylsulfone]
< 10 µM: all assays above

COc1cc(OC)c(/C=C/S(=O)(=O)Cc2ccc(OC)c(NC(=O)c3ccc(N4CCN(C)CC4)cc3)c2)c(OC)c1 [Example 23, (E)-2,4,6-trimethoxystyryl-3-[4-(4-methylpiperazin-1-yl)-benzamido]-4-methoxybenzylsulfone]
< 10 µM: all assays above

COc1cc(OC)c(/C=C/S(=O)(=O)Cc2ccc(OC)c(NC(=O)CO)c2)c(OC)c1 [Example 24, (E)-2,4,6-trimethoxystyryl-3-(hydroxyacetamido)-4-methoxy-benzylsulfone]
< 10 µM: all assays above

COc1cc(OC)c(/C=C/S(=O)(=O)Cc2ccc(OC)c(NC(=O)C[n+]3ccccc3)c2)c(OC)c1 [Example 25, (E)-2,4,6-trimethoxystyryl-3-(pyridinium-1-yl)acetamido-4-methoxybenzylsulfone]
< 10 µM: all assays above

COc1cc(OC)c(/C=C/S(=O)(=O)Cc2ccc(OC)c(NC(=O)COC(C)=O)c2)c(OC)c1 [Example 26, (E)-2,4,6-trimethoxystyryl-3-(acetoxyacetamido)-4-methoxy-benzylsulfone]
< 10 µM: all assays above

COc1cc(OC)c(/C=C/S(=O)(=O)Cc2ccc(OC)c(NC(=O)C(C)O)c2)c(OC)c1 (stereo not drawn) [Example 27, (E)-2,4,6-Trimethoxystyryl-3-(2-hydroxypropionamido)-4-methoxy benzylsulfone]
< 10 µM: all assays above

CC[N+](CC)(CC)CC(=O)Nc1cc(CS(=O)(=O)/C=C/c2c(OC)cc(OC)cc2OC)ccc1OC [Example 28, (E)-2,4,6-trimethoxystyryl-3-(triethylammoniumacetamido)-4-methoxybenzylsulfone]
< 10 µM: all assays above

COc1cc(OC)c(/C=C/S(=O)(=O)Cc2ccc(OC)c(NC(=O)C[N+](CCO)(CCO)CCO)c2)c(OC)c1 [Example 29, (E)-2,4,6-trimethoxystyryl-3-[tri-(2-hydroxyethyl)ammonium]-acetamido-4-methoxybenzylsulfone]
< 10 µM: all assays above

COc1cc(OC)c(/C=C/S(=O)(=O)Cc2ccc(OC)c(NC(=O)C(C)(C)O)c2)c(OC)c1 [Example 30, (E)-2,4,6-trimethoxystyryl-3-(2-methyl-2-hydroxypropion-amido)-4-methoxybenzylsulfone]
< 10 µM: all assays above

COc1cc(OC)c(/C=C/S(=O)(=O)Cc2ccc(OC)c(NC(=O)C(C)(C)OC(C)=O)c2)c(OC)c1 [Example 31, (E)-2,4,6-trimethoxystyryl-3-(2-methyl-2-acetoxypropionamido)-4-methoxybenzyl-sulfone]
< 10 µM: all assays above

COc1cc(OC)c(/C=C/S(=O)(=O)Cc2ccc(OC)c(NC(=O)C(F)(F)F)c2)c(OC)c1 [Example 32, (E)-2,4,6-trimethoxystyryl-3-(trifluoroacetamido)-4-methoxy-benzylsulfone]
< 10 µM: all assays above

COc1cc(OC)c(/C=C/S(=O)(=O)Cc2ccc(OC)c(NS(=O)(=O)C(F)(F)F)c2)c(OC)c1 [Example 33, (E)-2,4,6-trimethoxystyryl-3-(trifluoromethanesulfonamido)-4-methoxy-benzylsulfone]
< 10 µM: all assays above

COc1cc(OC)c(/C=C/S(=O)(=O)Cc2ccc(OC)c(NC(=O)CCC(=O)O)c2)c(OC)c1 [Example 34, (E)-2,4,6-trimethoxystyryl-3-(succinamido)-4-methoxybenzyl-sulfone]
< 10 µM: all assays above

COc1cc(OC)c(/C=C/S(=O)(=O)Cc2ccc(OC)c(NC(=O)CC(Cl)C(=O)O)c2)c(OC)c1 (stereo not drawn) [Example 35, (E)-2,4,6-trimethoxystyryl-3-(3-chlorosuccinamido)-4-methoxy-benzylsulfone]
< 10 µM: all assays above

COc1cc(OC)c(/C=C/S(=O)(=O)Cc2ccc(OC)c(NC(=O)COC(=O)CCC(=O)O)c2)c(OC)c1 [Example 36, (E)-2,4,6-trimethoxystyryl-3-[3-(3-carboxypropanoyloxy)-acetamido]-4-methoxybenzylsulfone]
< 10 µM: all assays above

COc1cc(OC)c(/C=C/S(=O)(=O)Cc2ccc(OC)c(NC(=O)CCCC(=O)O)c2)c(OC)c1 [Example 37, (E)-2,4,6-trimethoxystyryl-3-(glutaramido)-4-methoxybenzyl-sulfone]
< 10 µM: all assays above

COc1cc(OC)c(/C=C/S(=O)(=O)Cc2ccc(OC)c(NC(=O)CP(=O)(O)O)c2)c(OC)c1 [Example 38, (E)-2,4,6-trimethoxystyryl-3-(phosphonatoacetamido)-4-methoxybenzylsulfone, disodium salt]
< 10 µM: all assays above

COc1cc(OC)c(/C=C/S(=O)(=O)Cc2ccc(OC)c(NCCCC(=O)O)c2)c(OC)c1 [Example 39, (E)-2,4,6-trimethoxystyryl-3-(3-carboxypropylamino)-4-methoxybenzylsulfone]
< 10 µM: all assays above

COc1cc(OC)c(/C=C/S(=O)(=O)Cc2ccc(OC)c(NCCC(=O)O)c2)c(OC)c1 [Example 40, (E)-2,4,6-trimethoxystyryl-3-(2-carboxyethylamino)-4-methoxy-benzylsulfone]
< 10 µM: all assays above

— patent publication US8324190B2, “Treatment of proliferative disorders with amino-substituted (E)-2,6- dialkoxystyryl 4-substituted benzylsulfones” (Temple University—Of The Commonwealth System of Higher …, priority 2002, dated 2012)
